Data published in patent US9782379B2, “Use of protectin DX for the stimulation of muscular IL-6 secretion” (Universite Laval, priority 2013, dated 2017).

Legend:
db/db mice = assay: 5 days PDX treatment of db/db mice with hyperinsulinemic-isoglycemic clamp; format: in vivo
Method: In order to determine whether these beneficial effects of PDX could be sustained or improved with a prolonged treatment regimen, we administered 2 μg of PDX or vehicle (i.v.) twice daily to 17 week old db/db for 5 days leading up to the clamp experiment (FIGS. 10 and 11).
The hyperinsulinemic-isoglycemic clamp (FIG. 11) is the gold-standard for evaluating insulin stimulated glucose metabolism in viva Animals were fasted around 8 am (t=−300 min), and received a first injection of either PDX (2 μg/mice) or the vehicle (10% Ethanol) at t=−240 min. A second injection was given at time −90 min, after which the clamp procedure per se was started. This procedure consisted of a 90-min tracer equilibration period (t=−90 to 0 min) followed by a 120 min hyperinsulinemic isoglycemic clamp (t=0 to 120 min). A 50 μl blood sample was obtained at t=−90 min to determine radioactive-free plasma activity. A 0.5 μCi bolus of [3-3H]-glucose was given at t=−90 min followed by a 0.033 μCi/min infusion for 90 min (t=−90 to 0 min). At t=−30, -20, -10 and 0 min, blood samples were taken for the assessment of basal glucose and glucose specific activity. The insulin infusion began at t=0 min with a primed-continuous infusion of human insulin (16 mU/kg bolus followed by a 4 mU/kg/min infusion), to achieve plasma insulin concentrations 2.5-fold over basal concentrations. At t=0 min, the [3-3H]-glucose infusion was increased to 0.066 μCi/min for the remainder of the experiment to minimize changes in specific activity from the equilibration period. Isoglycemia was maintained by measuring blood glucose every 10 min starting at t=0 min and infusing 20% glucose as necessary to preserved the blood glucose at basal levels. Blood samples were taken every 10 min from t=90 to 120 min for the determination of glucose specific activity.

T37i brown adipocytes = assay: IL-6 release from cultured brown adipocytes; format: cell-based; conditions: norepinephrine 1 μM as adrenergic stimulus
Description: Since brown adipose tissue was recently shown to regulate glucose homeostasis via secretion of IL-6^20 we also examined whether PDX might raise circulating IL-6 by stimulating brown fat.

Question: Which total body weight (db/db mice; 2 μg PDX i.v. twice daily for 5 days vs vehicle) does the source give for `CC/C=C\C[C@H](O)/C=C/C=C\C=C\[C@@H](O)C/C=C\C/C=C\CCC(=O)O` [PDX, 10S,17S-dihydroxy-docosa-4Z,7Z,11E,13Z,15E,19Z-hexaeonic acid] here?
Answer: no significant changes

Question: What about the “IL6 levels in eWAT” value (db/db mice; 5 day PDX treatment) of the same molecule?
Answer: no such increase

Question: What about the fasting blood glucose (db/db mice; 5 day PDX treatment) of the same molecule?
Answer: not affected

Question: And the “plasma IL-6” value (db/db mice; 5 day PDX treatment)?
Answer: trend for increased

Question: And the plasmatic insulin levels (db/db mice; 5 day PDX treatment)?
Answer: not affected

Question: What about the “cytokines content in the eWAT” value (db/db mice; PDX-treated vs vehicle-treated) of the same molecule?
Answer: no difference

Question: What about the “insulin sensitivity (glucose infusion rate, GIR)” value (db/db mice; after the 5 days PDX treatment) of the same molecule?
Answer: clear improvement

Question: What about the “weight of tissues (iWAT, eWAT, liver, gastrocnemius, pancreas)” value (db/db mice; end of the 5 days treatment) of the same molecule?
Answer: No significant changes

Question: What about the “skeletal muscle IL-6” value (db/db mice; gastrocnemius, P<0.05) of the same molecule?
Answer: elevated

Question: And the “release of IL-6” value (T37i brown adipocytes)?
Answer: not able to stimulate
